Measurements taken from ChEMBL document CHEMBL1159200, “A new flavonol glycoside gallate ester from Acer okamotoanum and its inhibitory activity against human immunodeficiency virus-1 (HIV-1) integrase” (J Nat Prod, 1998).

biological target: Human immunodeficiency virus type 1 integrase (Human immunodeficiency virus 1, UniProt Q7ZJM1); test: Inhibition of HIV1 recombinant integrase expressed in Escherichia coli
Sequence (Q7ZJM1 whole entry): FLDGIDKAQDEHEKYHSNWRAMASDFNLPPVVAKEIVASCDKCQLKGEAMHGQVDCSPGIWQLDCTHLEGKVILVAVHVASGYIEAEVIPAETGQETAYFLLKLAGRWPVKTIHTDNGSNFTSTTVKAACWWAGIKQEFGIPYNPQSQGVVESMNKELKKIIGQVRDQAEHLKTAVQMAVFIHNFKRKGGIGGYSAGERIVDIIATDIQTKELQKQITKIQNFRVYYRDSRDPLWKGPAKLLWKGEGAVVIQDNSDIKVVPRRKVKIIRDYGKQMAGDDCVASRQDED

SMILES | IC50 [µM]
O=c1c(O[C@@H]2OC[C@H](O)[C@H](O)[C@H]2O)c(-c2ccc(O)cc2)oc2cc(O)cc(O)c12 | > 239
COC(=O)c1cc(O)c(O)c(O)c1 [GALLIC ACID METHYL ESTER] | 155
O=C(O[C@H]1[C@H](Oc2c(-c3ccc(O)c(O)c3)oc3cc(O)cc(O)c3c2=O)O[C@H](CO)[C@H](O)[C@@H]1O)c1cc(O)c(O)c(O)c1 | 45.3
O=c1c(O[C@@H]2O[C@H](CO)[C@H](O)[C@H](O)[C@H]2O)c(-c2ccc(O)c(O)c2)oc2cc(O)cc(O)c12 [HYPEROSIDE] | 139
O=C(OC[C@H]1O[C@@H](OC(=O)c2cc(O)c(O)c(O)c2)[C@H](OC(=O)c2cc(O)c(O)c(O)c2)[C@@H](OC(=O)c2cc(O)c(O)c(O)c2)[C@@H]1OC(=O)c1cc(O)c(O)c(O)c1)c1cc(O)c(O)c(O)c1 [PENTAGALLOYL GLUCOSE] | 29.8
C[C@@H]1O[C@@H](Oc2c(-c3ccc(O)c(O)c3)oc3cc(O)cc(O)c3c2=O)[C@H](O)[C@H](O)[C@H]1O [QUERCITRIN] | 168

Results, then the compound that gave them:

IC50 [µM] | SMILES
30.9 | O=C(O[C@H]1[C@H](Oc2c(-c3ccc(O)c(O)c3)oc3cc(O)cc(O)c3c2=O)OC[C@H](O)[C@@H]1O)c1cc(O)c(O)c(O)c1
44.5 | O=C(OC[C@H]1O[C@@H](OC(=O)c2cc(O)c(O)c(O)c2)[C@H](OC(=O)c2cc(O)c(O)c(O)c2)[C@@H](O)[C@@H]1O)c1cc(O)c(O)c(O)c1
31.5 | O=C(OC[C@H]1O[C@@H](Oc2c(-c3ccc(O)c(O)c3)oc3cc(O)cc(O)c3c2=O)[C@H](OC(=O)c2cc(O)c(O)c(O)c2)[C@@H](O)[C@H]1O)c1cc(O)c(O)c(O)c1
